# Data reported in publication PMC9184620, “TAS1553, a small molecule subunit interaction inhibitor of ribonucleotide reductase, exhibits antitumor activity by causing DNA replication stress” (Communications Biology, 2022).
# Assays:
# HCC38 xenograft = test: Antitumor activity in mice bearing HCC38 xenografts; type: in vivo, mouse; details: 100 mg/kg oral once daily for 14 days
# Experimental: (§1) Next, we evaluated the antitumor activity of a high-dose administration of TAS1553 and cytarabine in rats bearing MV-4-11 xenografts. […] The rats were treated with cytarabine for 5 days at 16 and 32 mg/kg. […] In addition to the hematologic tumor, we evaluated the antitumor activity of TAS1553 in mice implanted with HCC38 cell line as a solid tumor model. […] Finally, TAS1553 was evaluated for its survival benefit in a mouse model. To achieve this, we established mice bone marrow cells harboring the human MLL-AF9 fusion gene, which is known as a driver gene for AML in humans as well as mice[48]. Mice were transplanted with the cells through the tail vein and the treatment with TAS1553 was started 11 days post-implantation.
# For the subcutaneous implantation model of MV-4-11, F344/NJcl-rnu/rnu rats were irradiated with X-ray (4 Gy) to improve the efficiency of xenograft implantation. Two days after X-ray irradiation, MV-4-11 cells suspended in PBS with 50 vol% Matrigel were inoculated into the rats (2 × 10^7 cells/animal). In the mice subcutaneous implantation model, HCC38 cells suspended same as above were inoculated into male BALB/cAJcl-nu/nu mice (1 × 10^7 cells /body). The animals were randomized and administered with the compound for 14 days. Antitumor activity and body weight change were evaluated as previously reported. Dunnett test using the SAS software package in EXSUS (CAC Croit) was used to compare the tumor volume (P < 0.05).
# HCC38 and MV-4-11 cells = test: Immunoblotting of DNA replication stress and apoptosis markers; type: cell-based, human; details: both cell lines
# Experimental: Because dATP is a critical metabolite for DNA replication, we next examined whether TAS1553 caused DNA replication stress. We evaluated phosphorylation of Chk1 at Ser345 in HCC38 and MV-4-11 cells by treating them with TAS1553 for 2 h. […] Because phosphorylated RPA2 at Thr21 binds to single-strand DNA at the stalled replication fork[42], TAS1553 may cause the replication fork stalling. To test this possibility, we analyzed the nuclear localization of phosphorylated RPA2 at Thr21.
# Next, we examined the effect of TAS1553 on apoptosis induction in HCC38 and MV-4-11 cells. We treated TAS1553 at 1 or 10 µmol/L for 24 h and analyzed the time-dependent change of cleaved PARP and cleaved caspase-3 (Fig. 2g). Compared with control cells (0 h), phosphorylation of Chk1 at Ser345 was increased after 1 h of TAS1553 treatment at 1 and 10 μmol/L in both cell lines. Phosphorylation of RPA2 was also detected after 2 h of treatment with TAS1553 at 10 μmol/L. Following the induction of replication stress and fork stalling, cleaved PARP and cleaved caspase-3 levels were increased in both cell lines after 4 h of TAS1553 treatment at 10 μmol/L or after 8 h of treatment at 1 μmol/L.
# Immunoblotting analysis was performed as reported previously. […] Proteins were separated by SDS-PAGE and analyzed by Western blotting. […] The signals were detected with the ImageQuant LAS 4010 (GE Healthcare UK Ltd.).
# Plasma exposure in rats = details: nude rats
# Experimental: First, we analyzed the exposure of TAS1553 when administered orally.
# as §1
# F344/NJcl-rnu/rnu rats were orally administered with TAS1553 (two animals per group). The plasma samples were collected at each point. TAS1553 concentrations in plasma were measured with the LC-MS/MS.
# MLL-AF9 AML cells = test: Survival in systemic AML model (mice bone marrow cells harboring human MLL-AF9 fusion gene); type: in vivo, mouse; details: 100 mg/kg daily
# Experimental: as §1
# HCC38 cells = test: Cell proliferation assay (CellTiter-Glo), HCC38; type: cell-based; details: Homo sapiens, 72 h; HCC38, 3 days exposure
# Experimental: Next, we evaluated both concentration-dependent and time-dependent effects of TAS1553 on the dATP pool in HCC38 and MV-4-11 cell lines using absolute quantification. After 2 h of TAS1553 exposure, there was a concentration-dependent reduction of intracellular dATP pool in both cell lines (Fig. 2c). Furthermore, the intracellular dATP pool was reduced within 30 minutes when treated with TAS1553 at 1 or 10 µmol/L in both cell lines (Fig. 2d), consistent with its inhibitory effect on the protein-protein interaction (Fig. 2a).
# Cell proliferation assay was performed as reported previously. Briefly, cells were plated and incubated for 1 day, followed by 3 days of exposure to the compound. After compound exposure, viable cells were detected by using the CellTiter-Glo luminescent cell viability assay (Promega). GI50 values were calculated using the SAS software package. The experiment was performed in triplicates.
# [1] = test system: 68 proteins (ion channels, transporters, nuclear receptors, G protein-coupled receptors); test: Eurofins LeadProfilingScreen panel assay; type: binding; details: 10 μmol/L; significant defined as >50% inhibition for each target protein
# Experimental: The binding affinity of TAS1553 to the R1 subunit was investigated using surface plasmon resonance (SPR) binding analysis. […] Next, we evaluated the inhibitory effect of TAS1553 against the enzymatic activity of RNR, consisting of R1 and R2 recombinant proteins. RNR activity was determined by its ability to reduce cytidine diphosphate (CDP) to deoxycytidine diphosphate (dCDP), based on a previous report. […] In addition to the inhibitory effect on RNR, TAS1553 was evaluated in a Eurofins LeadProfilingScreen panel assay including 68 proteins, such as ion channels, transporters, nuclear receptors, and G protein-coupled receptors, to examine its potential adverse activity.
compound,measurement,setting,value
"Cc1ccc(F)c([C@@H](C)[C@H](NS(=O)(=O)c2ccc(Cl)cc2C(N)=O)c2n[nH]c(=O)o2)c1C [TAS1553, 5-chloro-2-{N-[(1S,2R)-2-(6-fluoro-2,3-dimethylphenyl)-1-(5-oxo-4,5-dihydro-1,3,4-oxadiazol-2-yl)propyl]sulfamoyl}benzamide]",T/C ratio,HCC38 xenograft,40.4%
same,phosphorylation of Chk1 at Ser345,"HCC38 and MV-4-11 cells; 1 µmol/L, 2 h",markedly induced
same,cleaved PARP and cleaved caspase-3 levels,HCC38 and MV-4-11 cells; after 4 h at 10 μmol/L or 8 h at 1 μmol/L,increased
same,plasma concentration after single oral dose,Plasma exposure in rats,dose-dependent rise
same,median survival time,MLL-AF9 AML cells; start 11 days post-implantation,75.5 days
same,increase in the life span,MLL-AF9 AML cells; versus control,34.8%
same,GI50,HCC38 cells,352 nM
same,inhibition in 68-protein panel,[1],no significant inhibition
